Measurements as given in patent US20140005417A1, “WATER-INSOLUBLE COLORING COMPOUND, INK, RESIST COMPOSITION FOR COLOR FILTER, AND THERMAL TRANSFER RECORDING SHEET” (CANON KABUSHIKI KAISHA, priority 2011, published 2014).

Tests used:
[1] = physchem; conditions: organic solvent or mixture, thermodynamic from solid
Source text: The solubility in each solvent was visually evaluated by the following criteria:
A: completely dissolved (the solubility is excellent),
B: slightly remaining suspended solids (the solubility is good), and
C: not dissolved at all (the solubility is poor).

[2] = Light resistance evaluation of ink image samples (exposure test); conditions: ink image sample with L* closest to 60; Weather-Ometer exposure 36 hours, black panel 50° C., chamber 40° C., RH 70%, 340 nm 0.39 W/m^2; less than 10 = good
Procedure: The measurement conditions were as follows:
Relative Humidity: 70%, and
Before and after the exposure test, chromaticity (L*, a*, and b*) in the L*a*b* color system of the sample was measured with a reflection densitometer SpectroLino (manufactured by Gretag Macbeth AG). The color difference (ΔE) was calculated from the measured values of color properties by the following expression:
Color difference (ΔE)=[{(a* before the test)−(a* after the test)}^2+{(b* before the test)−(b* after the test)}^2+{(L* before the test)−(L* after the test)}^2]^1/2
When the ΔE after 36 hours was less than 10, the light resistance was evaluated as good.

[3] = Solubility in water; type: physicochemical
Source text: The water-insoluble coloring compound represented by Formula (1) of the present invention has a high affinity to an organic solvent. In the present invention, the term “water-insoluble” refers to that the solubility in water is less than 1% as mass percentage.

CCN(CC)c1ccc2c(c1)Oc1cc(N(CC)CC)ccc1C21OC(=O)c2ccccc21 [(1)]
solubility ([1]; chloroform): > 42.9 mg/mL
solubility ([1]; ethyl acetate): < 42.9 mg/mL
solubility ([1]; methanol): > 42.9 mg/mL
solubility ([1]; toluene): < 42.9 mg/mL
ΔE (36 h) [2]: 15.8

Nc1c(Oc2ccccc2)cc(O)c2c1C(=O)c1ccccc1C2=O [(2)]
solubility ([1]; chloroform): < 42.9 mg/mL
solubility ([1]; ethyl acetate): < 42.9 mg/mL
solubility ([1]; methanol): < 42.9 mg/mL
solubility ([1]; toluene): < 42.9 mg/mL
ΔE (36 h) [2]: 12.3

Cc1ccc(/N=N/c2c(O)c(C(=O)O)cc3ccccc23)c(S(=O)(=O)O)c1 [(3)]
solubility ([1]; chloroform): < 42.9 mg/mL
solubility ([1]; ethyl acetate): < 42.9 mg/mL
solubility ([1]; methanol): < 42.9 mg/mL
solubility ([1]; toluene): < 42.9 mg/mL
ΔE (36 h) [2]: 1.5

CC(=O)Nc1c(C)c(N=c2ccc3c(-c4ccccc4S(=O)(=O)O)c4ccc(Nc5c(C)c(NC(C)=O)c(C)c(NC(C)=O)c5C)cc4oc-3c2)c(C)c(NC(C)=O)c1C [(11)]
ΔE (36 h) [2]: 2.3

CCOC(=O)c1ccccc1C(=O)Nc1c(C)cc(C)c(N=c2ccc3c(-c4ccccc4S(=O)(=O)O)c4ccc(Nc5c(C)cc(C)c(NC(=O)c6ccccc6C(=O)OCC)c5C)cc4oc-3c2)c1C [(12)]
ΔE (36 h) [2]: 3.5

CC(=O)Nc1c(C)cc(C)c(N=c2ccc3c(-c4ccccc4S(=O)(=O)O)c4ccc(Nc5c(C)c(NC(C)=O)c(C)c(NC(C)=O)c5C)cc4oc-3c2)c1C [(13)]
ΔE (36 h) [2]: 3.1

CCc1ccc(NC(C)=O)c(CC)c1N=c1ccc2c(-c3ccccc3S(=O)(=O)O)c3ccc(Nc4c(CC)ccc(NC(C)=O)c4CC)cc3oc-2c1 [(14)]
ΔE (36 h) [2]: 5.2

CCc1ccc(NC(C)=O)c(CC)c1Nc1ccc2c(-c3ccccc3S(=O)(=O)O)c3ccc(=Nc4c(C)ccc(NC(C)=O)c4C)cc-3oc2c1 [(15)]
ΔE (36 h) [2]: 5.0

CC(=O)Nc1ccc(C)c(N=c2ccc3c(-c4ccccc4S(=O)(=O)O)c4ccc(Nc5c(C(C)C)ccc(NC(C)=O)c5C(C)C)cc4oc-3c2)c1C [(16)]
ΔE (36 h) [2]: 5.8

CCOc1cc(C)c(N=c2ccc3c(-c4ccccc4S(=O)(=O)O)c4ccc(Nc5c(C)cc(OCC)c(NC(C)=O)c5C)cc4oc-3c2)c(C)c1NC(C)=O [(18)]
ΔE (36 h) [2]: 3.9

C=C(C)C(=O)Nc1c(C)cc(C)c(N=c2ccc3c(-c4ccccc4S(=O)(=O)O)c4ccc(Nc5c(C)cc(C)c(NC(=O)C(=C)C)c5C)cc4oc-3c2)c1C [(21)]
ΔE (36 h) [2]: 7.8

Cc1cc(C)c(NC(=O)c2cccnc2)c(C)c1N=c1ccc2c(-c3ccccc3S(=O)(=O)O)c3ccc(Nc4c(C)cc(C)c(NC(=O)c5cccnc5)c4C)cc3oc-2c1 [(22)]
ΔE (36 h) [2]: 5.0

CCCCCCCCCCCCCCCCCC(=O)Nc1c(C)cc(C)c(N=c2ccc3c(-c4ccccc4S(=O)(=O)O)c4ccc(Nc5c(C)cc(C)c(NC(=O)CCCCCCCCCCCCCCCCC)c5C)cc4oc-3c2)c1C [(23)]
ΔE (36 h) [2]: 3.8

CC(=O)Nc1c(C)cc(C)c(N=c2ccc3c(-c4ccccc4S(=O)(=O)O)c4ccc(Nc5c(C)cc(C)c(NC(C)=O)c5C)cc4oc-3c2)c1C [Compound (5)]
ΔE (36 h) [2]: 3.2
solubility in water [3]: less than 1 % as mass percentage

CCC(=O)Nc1c(C)cc(C)c(N=c2ccc3c(-c4ccccc4S(=O)(=O)O)c4ccc(Nc5c(C)cc(C)c(NC(=O)CC)c5C)cc4oc-3c2)c1C [Compound (6)]
ΔE (36 h) [2]: 3.3

CCCC(=O)Nc1c(C)cc(C)c(N=c2ccc3c(-c4ccccc4S(=O)(=O)O)c4ccc(Nc5c(C)cc(C)c(NC(=O)CCC)c5C)cc4oc-3c2)c1C [Compound (7)]
ΔE (36 h) [2]: 3.2

Cc1cc(C)c(NC(=O)C(C)C)c(C)c1N=c1ccc2c(-c3ccccc3S(=O)(=O)O)c3ccc(Nc4c(C)cc(C)c(NC(=O)C(C)C)c4C)cc3oc-2c1 [Compound (8)]
ΔE (36 h) [2]: 2.9

Cc1cc(C)c(NC(=O)c2ccccc2)c(C)c1N=c1ccc2c(-c3ccccc3S(=O)(=O)O)c3ccc(Nc4c(C)cc(C)c(NC(=O)c5ccccc5)c4C)cc3oc-2c1 [Compound (10)]
ΔE (36 h) [2]: 3.8
